# Reference: patent US4552888A, “Ascorbic acid ethers in angiogene” (Eli Lilly and Company, priority 1983, dated 1985)
# Counter-ions that a name gives are not always drawn.
# Tested on: not listed separately
# Assay: pKa by titration
# Format: physicochemical
# Conditions: not given
titratable group,pKa,Compound
No titratable group,,"CC1(C)OC[C@@H]([C@H]2OC(=O)C(OCCCCC#N)=C2OCCCCC#N)O1 [2,3-O-bis(4-cyanobutyl)-5,6-O-(1-methylethylidene)-L-ascorbic acid]"
No titratable group,,"CC1(C)OC[C@@H]([C@H]2OC(=O)C(OCc3ccc(F)cc3)=C2OCc2ccc(F)cc2)O1 [2,3-O-bis(4-fluorobenzyl)-5,6-O-(1-methylethylidene)-L-ascorbic acid]"
No titratable group,,"CCCCCCCCCCCCCCCCCCOC1=C(OCCCCCCCCCCCCCCCCCC)[C@@H]([C@@H]2COC(C)(C)O2)OC1=O [2,3-O-bis(n-octadecy-5,6-O-(1-methylethylidene)-L-ascorbic acid]"
No titratable groups,,"CCCCCCCCCCCCCCCOC1=C(OCCCCCCCCCCCCCCC)[C@@H]([C@@H]2COC(C)(C)O2)OC1=O [2,3-O-bis(n-pentadecyl)-5,6-O-(1-methylethylidene)-L-ascorbic acid]"
No titratable group,,"Cc1ccccc1COC1=C(OCc2ccccc2C)[C@@H]([C@@H]2COC(C)(C)O2)OC1=O [2,3-bis(O-2-methylbenzyl)-5,6-O-(1-methylethylidene-L-ascorbic acid]"
no titratable group,,"CCCCCCCCCCCCCCCCOC1=C(OCCCCCCCCCCCCCCCC)[C@@H]([C@@H](O)CO)OC1=O [2,3-di-(O-n-hexadecyl)-L-ascorbic acid]"
,10.31,"COCCOC1=C(O)C(=O)O[C@@H]1[C@@H]1COC(C)(C)O1 [3-O-(2-methoxyethyl)-5,6-O-(1-methylethylidene)-L-ascorbic acid]"

# Same assay, conditions: read-out: pKa
row,pKa,Compound
1,11.6,CCCCCCCCCCCCCCCCCCOC1=C(O)C(=O)O[C@@H]1[C@H](O)CO (relative stereo) [3-O-n-octadecyl isoascorbic acid]
2,8,CCCCCCCCCCCCCCCCCCOC1=C(OCCCN(C)C)C(=O)O[C@@H]1[C@@H](O)CO [2-O-(3-dimethylaminopropyl)-3-O-n-octadecyl-L-ascorbic acid hydrochloride]
3,10.6,"COc1ccc(OC)c(C(=O)COC2=C(O)C(=O)O[C@@H]2[C@@H]2COC(C)(C)O2)c1 [3-O-(2,5-dimethoxyphenacyl)-5,6-O-(1-methylethylidene)-L-ascorbic acid]"
4,10.4,"CC1(C)OC[C@@H]([C@H]2OC(=O)C(O)=C2OCCOCCBr)O1 [3-O-(2-bromoethoxyethyl)-5,6-O-(1-methylethylidene)-L-ascorbic acid]"
5,10.8,Cc1ccccc1COC1=C(O)C(=O)O[C@@H]1[C@@H](O)CO [3-O-(2-methylbenzyl)-L-ascorbic acid]
6,10.3,"CC1(C)OC[C@@H]([C@H]2OC(=O)C(O)=C2OCCN2C(=O)c3ccccc3C2=O)O1 [3-O-(2-phthalimidoethyl)-5,6-O-(1-methylethylidene)-L-ascorbic acid]"
7,10.5,O=C1O[C@H]([C@@H](O)CO)C(OCc2cccc(Br)c2)=C1O [3-O-(3-bromobenzyl)-L-ascorbic acid]
8,10.7,"CC1(C)OC[C@@H]([C@H]2OC(=O)C(O)=C2OCCCOc2ccccc2)O1 [3-O-(3-phenoxypropyl)-5,6-O-(1-methylethylidene)-L-ascorbic acid]"
9,9,"CCCCCCCCCCCCCCCCCCOC1=C(O)C(=O)O[C@@H]1[C@@H]1COC(C)(CCl)O1 (stereo partly drawn) [3-O-n-octadecyl-5,6-O-(1-chloromethylethylidene)-L-ascorbic acid]"
10,11,CCCCCCCCCCCCCCCCCCOC1=C(O)C(=O)O[C@H]1[C@H](O)CO [3-O-n-octadecyl-D-ascorbic acid]
11,10.9,"CCCCCCCCCCCCCCCOC1=C(O)C(=O)O[C@@H]1[C@@H]1COC(C)(C)O1 [3-O-n-pentadecyl-5,6-O-(1-methylethylidene)-L-ascorbic acid]"
12,6.55,"O=C1OC(C2COC(Cc3ccccc3)(Cc3ccccc3)O2)C(O)=C1O [5,6-O-(1-benzyl-2-phenylethylidene)-L-ascorbic acid]"
13,6.1,"CC1(CCl)OC[C@@H]([C@H]2OC(=O)C(O)=C2O)O1 (stereo partly drawn) [5,6-O-(1-chloromethylethylidene)-L-ascorbic acid]"
14,6.48,"CCCCCCCCCCC1OC[C@@H]([C@H]2OC(=O)C(O)=C2O)O1 (stereo partly drawn) [5,6-O-undecylidene-L-ascorbic acid]"

# Tested on: angiogenesis factor
# Assay: Inhibition of angiogenesis factor (3683 Morris hepatoma lysosomal-mitochondrial pellet) induced serpentine vessels in mice
# Format: in vivo, mice (SPF/ND4 female)
# Conditions: Mus musculus, ip, 24 h, Table 1; dose 300 mg./kg.
# Protocol: Lysosomal-mitochondrial pellets containing angiogenesis factor are prepared from 3683 Morris hepatoma. The pellet is diluted with 7-8 ml. of 15% ficoll. With this dilution, 8-10 serpentine vessels will be produced per 0.2 cc. injection as described below for the control group.
# Next, 15 SPF/ND4 female mice weighing 20-22 g. are shaved on the left side and then divided into three groups of five each. One group (drug group) is injected subcutaneously and laterally with 0.20 cc. of the lysosomal-mitochondrial preparation diluted with 15% ficoll. This group of mice is then dosed individually by the intraperitoneal route with 0.5 cc. of a solution or suspension in a standard vehicle containing the compound under test, usually at an initial dose level of 300 mg./kg. If this dose level is toxic, two-fold dilutions are made until all mice survive a single dose. The second group of mice (control group) is injected subcutaneously and laterally with 0.2 cc. of the lysosomal-mitochondrial suspension diluted with 15% ficoll and dosed intraperitoneally with 0.5 cc. of the vehicle alone. The third group (negative control) is injected with ficoll solution only (no treatment with drug or vehicle). The mice are sacrificed after 24 hours. Each mouse is placed on its side on a dissecting board with the shaved side up. Starting at the flank, the skin is cut straight to the back of the animal. A similar cut is made behind the front leg. Then the skin is cut along the back making a flap of about one inch by two inches. The skin is carefully separated from the connective tissue using forceps and a scalpel. The skin flap is then laid back exposing the lysosomal-mitochondrial implant which is attached to the skin. The skin flap is gently flattened out and with the use of a binocular dissecting scope, serpentine vessels are observed around the lysosomal-mitochondrial implant and their number counted. All observations of the number of serpentine vessels are made at the same power of the microscope (1X). The average number of serpentine vessels for each group is calculated. The percent inhibition is then calculated according to the following equation. [formula] where sv=average number of serpentine vessels.
# If the negative control group described above has any serpentine vessels, the test is invalid due to contamination of the ficoll solution.
# Table I covers compounds according to formula I above in which R^2 and R^3 are both H, table II covers compounds in which R^2 and R^3 form a 1-methylethylidene group, and Table III compounds in which R^2 plus R^3 equal a benzylidene group or other group.
# One of the compounds of this invention, 3-O-n-octadecyl-5,6-O-(1-methylethylidene)-L-ascorbic acid was tested at a series of dose levels for its ability to inhibit tumor angiogenesis and the results of these tests are set forth in Table IV.
row,Compound,inhibition in vivo at 300 mg/kg
1,O=C1O[C@H]([C@@H](O)CO)C(OCCOCCBr)=C1O [3-O-(2-bromoethoxyethyl)-L-ascorbic acid],36%
2,O=C1O[C@H]([C@@H](O)CO)C(OCCN2C(=O)c3ccccc3C2=O)=C1O [3-O-(2-phthalimidoethyl)-L-ascorbic acid],55%
3,O=C1O[C@H]([C@@H](O)CO)C(OCc2cccc(Br)c2)=C1O [3-O-(3-bromobenzyl)-L-ascorbic acid],74%
4,O=C1O[C@H]([C@@H](O)CO)C(OCCCOc2ccccc2)=C1O [3-O-(3-phenoxypropyl)-L-ascorbic acid],68%
5,CCCCCCCCCCCCCCCOC1=C(O)C(=O)O[C@@H]1[C@@H](O)CO [3-O-n-pentadecyl-L-ascorbic acid],50%

# Same assay, conditions: Mus musculus, ip, 24 h, Table 1; i.p.; dose 25 mg./kg.; 24 hours; read-out: average % inhibition (serpentine vessels)
row,Compound,inhibition in vivo at 25 mg/kg
1,O=C1O[C@H]([C@@H](O)CO)C(OCc2cccc(Cl)c2)=C1O [3-O-(3-chlorobenzyl)-L-ascorbic acid],41%
2,O=C1O[C@H]([C@@H](O)CO)C(OCc2cccc(F)c2)=C1O [3-O-(3-fluorobenzyl)-L-ascorbic acid],52%
3,Cc1cccc(COC2=C(O)C(=O)O[C@@H]2[C@@H](O)CO)c1 [3-O-(3-methylbenzyl)-L-ascorbic acid],54%
4,O=C(O)CCCCCCCCCCOC1=C(O)C(=O)O[C@@H]1[C@@H](O)CO [3-O-(ω-hydroxycarbonyldecyl)-L-ascorbic acid],41%

# Same assay, conditions: Mus musculus, ip, 24 h, Table 2; dose 37.5 mg./kg.
row,Compound,inhibition in vivo at 37.5 mg/kg
1,"CC1(C)OC[C@@H]([C@H]2OC(=O)C(OCc3ccc(F)cc3)=C2OCc2ccc(F)cc2)O1 [2,3-O-bis(4-fluorobenzyl)-5,6-O-(1-methylethylidene)-L-ascorbic acid]",45%

# Same assay, conditions: Mus musculus, ip, 24 h, Table 2; dose 120 mg./kg.
row,Compound,inhibition in vivo at 120 mg/kg
1,"CC1(C)OC[C@@H]([C@H]2OC(=O)C(O)=C2OCCN2C(=O)c3ccccc3C2=O)O1 [3-O-(2-phthalimidoethyl)-5,6-O-(1-methylethylidene)-L-ascorbic acid]",30%

# Same assay, conditions: Mus musculus, ip, 24 h, Table 2; dose 150 mg./kg.
row,Compound,inhibition in vivo at 150 mg/kg
1,"CC1(C)OC[C@@H]([C@H]2OC(=O)C(O)=C2OCCCOc2ccccc2)O1 [3-O-(3-phenoxypropyl)-5,6-O-(1-methylethylidene)-L-ascorbic acid]",36%

# Same assay, conditions: Mus musculus, ip, 24 h, Table 2; dose 240 mg./kg.
row,Compound,inhibition in vivo at 240 mg/kg
1,"CC1(C)OC[C@@H]([C@H]2OC(=O)C(O)=C2OCCOCCBr)O1 [3-O-(2-bromoethoxyethyl)-5,6-O-(1-methylethylidene)-L-ascorbic acid]",71%

# Same assay, conditions: Mus musculus, ip, 24 h, Table 2; i.p.; dose 25 mg./kg.; 24 hours; read-out: % inhibition (serpentine vessels)
row,Compound,inhibition in vivo at 25 mg/kg
1,"CCCCCCCCCCCCCCCCCCOC1=C(OCCCCCCCCCCCCCCCCCC)[C@@H]([C@@H]2COC(C)(C)O2)OC1=O [2,3-O-bis(n-octadecy-5,6-O-(1-methylethylidene)-L-ascorbic acid]",18 to 85%
2,"CC1(C)OC[C@@H]([C@H]2OC(=O)C(O)=C2OCc2cccc(F)c2)O1 [3-O-(3-fluorobenzyl)-5,6-O-(1-methylethylidene)-L-ascorbic acid]",27 to 82%

# Same assay, conditions: Mus musculus, ip, 24 h, Table 3; 150 mg./kg. dose intraperitoneally
row,Compound,inhibition in vivo at 150 mg/kg
1,"COCCOC1=C(O)C(=O)O[C@@H]1[C@@H]1COC(c2ccccc2)O1 (stereo partly drawn) [3-(2-methoxyethyl)-5,6-O-benzylidine-L-ascorbic acid]",31%
2,"CCCCOC1=C(O)C(=O)O[C@@H]1[C@@H]1COC(c2ccccc2)O1 (stereo partly drawn) [3-O-n-butyl-5,6-O-(benzylidene)-L-ascorbic acid]",60%

# Same assay, conditions: Table 1; i.p.; dose 25 mg./kg.; 24 hours
row,Compound,average % inhibition (serpentine vessels)
1,"O=C1O[C@H]([C@@H](O)CO)C(OCc2ccccc2Cl)=C1O [R=2-chlorobenzyl, R^1=H (Table 1)]",55%

# Same assay, conditions: Table 2; i.p.; dose 10 mg./kg.; 24 hours
row,Compound,% inhibition (serpentine vessels)
1,"CCOC(=O)COC1=C(O)C(=O)O[C@@H]1[C@@H]1COC(C)(C)O1 [R=C2 H5 OCOCH2, R^1=H (Table 2)]",12%
2,"COC1=C(O)C(=O)O[C@@H]1[C@@H]1COC(C)(C)O1 [R=methyl, R^1=H (Table 2)]",15%
3,"CCCCOC1=C(O)C(=O)O[C@@H]1[C@@H]1COC(C)(C)O1 [R=n-butyl, R^1=H (Table 2)]",60%
4,"CCCCCCCCCCOC1=C(O)C(=O)O[C@@H]1[C@@H]1COC(C)(C)O1 [R=n-decyl, R^1=H (Table 2)]",48%
5,"CCCCCCOC1=C(O)C(=O)O[C@@H]1[C@@H]1COC(C)(C)O1 [R=n-hexyl, R^1=H (Table 2)]",41%

# Same assay, conditions: Table 2; i.p.; range dose 10-240 mg./kg.; 24 hours
row,Compound,% inhibition (serpentine vessels)
1,"COCCOC1=C(O)C(=O)O[C@@H]1[C@@H]1COC(C)(C)O1 [3-O-(2-methoxyethyl)-5,6-O-(1-methylethylidene)-L-ascorbic acid]",28-61%
